Experimental data published in ChEMBL document CHEMBL5252628, “Novel xanthone antibacterials: Semi-synthesis, biological evaluation, and the action mechanisms” (Bioorg Med Chem, 2023).
Converted amounts (≈) assume the structure as drawn.

Tests used:
Staphylococcus aureus [1] = test: Antibacterial activity against Staphylococcus aureus ATCC 29213 assessed as inhibition of bacterial growth incubated for 18 to 24 hrs by broth microdilution assay; format: functional; conditions: time 18-24 hrs
Staphylococcus aureus [2] = test: Antibacterial activity against Staphylococcus aureus SH-27 assessed as inhibition of bacterial growth incubated for 18 to 24 hrs by broth microdilution assay; format: functional; conditions: time 18-24 hrs
Staphylococcus aureus [3] = test: Antibacterial activity against Staphylococcus aureus ATCC 33591 assessed as inhibition of bacterial growth incubated for 18 to 24 hrs by broth microdilution assay; format: functional; conditions: time 18-24 hrs
Escherichia coli = test: Antibacterial activity against Escherichia coli ATCC 25922 assessed as inhibition of bacterial growth incubated for 18 to 24 hrs by broth microdilution assay; format: functional; conditions: time 18-24 hrs
Staphylococcus aureus [4] = test: Antibacterial activity against Staphylococcus aureus ATCC 43300 assessed as inhibition of bacterial growth incubated for 18 to 24 hrs by broth microdilution assay; format: functional; conditions: time 18-24 hrs
Staphylococcus aureus [5] = test: Antibacterial activity against methicillin-resistant Staphylococcus aureus 2 assessed as inhibition of bacterial growth incubated for 18 to 24 hrs by broth microdilution assay; format: functional; conditions: time 18-24 hrs
Salmonella enteritidis = test: Antibacterial activity against Salmonella enteritidis SM012 assessed as inhibition of bacterial growth incubated for 18 to 24 hrs by broth microdilution assay; format: functional, Salmonella enterica subsp. enterica serovar Enteritidis; conditions: Salmonella enterica, time 18-24 hrs
Staphylococcus aureus [6] = test: Induction of drug resistance in Staphylococcus aureus ATCC 29213 assessed as fold increase in MIC measured after 20 passage; format: functional
A549 = test: Cytotoxicity against human A549 cells assessed as reduction in cell viability at 25 ug/ml incubated for 72 hrs by CCK-8 assay; format: toxicity, cell-based; conditions: a549, 72 h, dose 25 µg/ml
[7] = Hemolytic activity in rabbit RBC assessed as hemolysis incubated for 1 hr by microtiter plate method; format: toxicity, cell-based, Oryctolagus cuniculus, Erythrocyte; conditions: red blood cells
L02 = test: Cytotoxicity against human L02 cells assessed as reduction in cell viability at 25 ug/ml incubated for 72 hrs by CCK-8 assay; format: toxicity, cell-based; conditions: l02, 72 h, dose 25 µg/ml

SMILES | MIC (Staphylococcus aureus [1]) | MIC (Staphylococcus aureus [2]) | MIC (Staphylococcus aureus [3]) | MIC (Escherichia coli) | MIC (Staphylococcus aureus [4]) | MIC (Staphylococcus aureus [5]) | MIC (Salmonella enteritidis) | fold change (FC) (Staphylococcus aureus [6]) | Activity (A549) | HC50 at 1 h [7] | Activity (L02)
C=CCOc1cc2oc3cc(OCC=C)c(OC)c(CC=C(C)C)c3c(=O)c2c(O)c1CC=C(C)C | > 256 µg/mL | > 256 µg/mL | > 256 µg/mL | > 256 µg/mL | > 256 µg/mL | > 256 µg/mL | > 256 µg/mL | – | – | – | –
COc1cc2oc3cc(OC)c(OC)c(CC=C(C)C)c3c(=O)c2c(OC)c1CC=C(C)C | > 256 µg/mL | > 256 µg/mL | > 256 µg/mL | > 256 µg/mL | > 256 µg/mL | > 256 µg/mL | > 256 µg/mL | – | – | – | –
C=CCOc1cc2oc3cc(OCC=C)c(OC)c(CC=C(C)C)c3c(=O)c2c(OC(C)=O)c1CC=C(C)C | > 256 µg/mL | > 256 µg/mL | > 256 µg/mL | > 256 µg/mL | > 256 µg/mL | > 256 µg/mL | > 256 µg/mL | – | – | – | –
COc1c(O)cc2oc3cc(OC(=O)C(C)C)c(CC=C(C)C)c(O)c3c(=O)c2c1CC=C(C)C | > 256 µg/mL | > 256 µg/mL | > 256 µg/mL | > 256 µg/mL | > 256 µg/mL | > 256 µg/mL | > 256 µg/mL | – | – | – | –
COc1c(OCCCCCCO)cc2oc3cc(OCCCCCCO)c(CC=C(C)C)c(O)c3c(=O)c2c1CC=C(C)C | > 256 µg/mL | > 256 µg/mL | > 256 µg/mL | > 256 µg/mL | > 256 µg/mL | > 256 µg/mL | > 256 µg/mL | – | – | – | –
COc1c(OC(=O)C(C)C)cc2oc3cc(OC(=O)C(C)C)c(CC=C(C)C)c(OC(=O)C(C)C)c3c(=O)c2c1CC=C(C)C | > 256 µg/mL | > 256 µg/mL | > 256 µg/mL | > 256 µg/mL | > 256 µg/mL | > 256 µg/mL | > 256 µg/mL | – | – | – | –
COc1c(OC(=O)C(C)C)cc2oc3cc(O)c(CC=C(C)C)c(O)c3c(=O)c2c1CC=C(C)C | > 256 µg/mL | > 256 µg/mL | > 256 µg/mL | > 256 µg/mL | > 256 µg/mL | > 256 µg/mL | > 256 µg/mL | – | – | – | –
COc1c(OC(C)=O)cc2oc3cc(OC(C)=O)c(CC=C(C)C)c(O)c3c(=O)c2c1CC=C(C)C | > 256 µg/mL | > 256 µg/mL | > 256 µg/mL | > 256 µg/mL | > 256 µg/mL | > 256 µg/mL | > 256 µg/mL | – | – | – | –
Cc1onc(-c2ccccc2)c1C(=O)N[C@@H]1C(=O)N2[C@@H]1SC(C)(C)[C@@H]2C(=O)O [OXACILLIN] | – | – | – | – | – | – | – | 64 | – | – | –
COc1c(OC(=O)C(C)C)cc2oc3cc(OC(=O)C(C)C)c(CC=C(C)C)c(O)c3c(=O)c2c1CC=C(C)C | > 256 µg/mL | > 256 µg/mL | > 256 µg/mL | > 256 µg/mL | > 256 µg/mL | > 256 µg/mL | > 256 µg/mL | – | – | – | –
COc1c(OCCCCCCO)cc2oc3cc(O)c(CC=C(C)C)c(O)c3c(=O)c2c1CC=C(C)C | > 256 µg/mL | > 256 µg/mL | > 256 µg/mL | > 256 µg/mL | > 256 µg/mL | > 256 µg/mL | > 256 µg/mL | – | – | – | –
COc1c(OCc2ccccc2)cc2oc3cc(OCc4ccccc4)c(CC=C(C)C)c(OCc4ccccc4)c3c(=O)c2c1CC=C(C)C | > 256 µg/mL | > 256 µg/mL | > 256 µg/mL | > 256 µg/mL | > 256 µg/mL | > 256 µg/mL | > 256 µg/mL | – | – | – | –
C=CCOc1cc2oc3cc(O)c(CC=C(C)C)c(O)c3c(=O)c2c(CC=C(C)C)c1OC | > 256 µg/mL | 2 µg/mL (≈ 4.44 µM) | 256 µg/mL (≈ 568 µM) | > 256 µg/mL | 256 µg/mL (≈ 568 µM) | > 256 µg/mL | > 256 µg/mL | – | Non-Toxic | 403 µg/mL | Non-Toxic
COc1c(O)cc2oc3cc(O)c(CC=C(C)C)c(OC(=O)C(C)C)c3c(=O)c2c1CC=C(C)C | 2 µg/mL (≈ 4.16 µM) | 1 µg/mL (≈ 2.08 µM) | 1 µg/mL (≈ 2.08 µM) | > 256 µg/mL | 1 µg/mL (≈ 2.08 µM) | 2 µg/mL (≈ 4.16 µM) | > 256 µg/mL | – | Non-Toxic | 263 µg/mL | Non-Toxic
C=CCOc1cc2oc3cc(OCC=C)c(OC)c(CC=C(C)C)c3c(=O)c2c(OC(=O)C(C)C)c1CC=C(C)C | > 256 µg/mL | > 256 µg/mL | > 256 µg/mL | > 256 µg/mL | > 256 µg/mL | > 256 µg/mL | > 256 µg/mL | – | – | – | –
COc1c(O)cc2oc3cc(O)c(CCC(C)C)c(O)c3c(=O)c2c1CCC(C)C | 32 µg/mL (≈ 77.2 µM) | 64 µg/mL (≈ 154 µM) | 64 µg/mL (≈ 154 µM) | > 256 µg/mL | 32 µg/mL (≈ 77.2 µM) | 64 µg/mL (≈ 154 µM) | > 256 µg/mL | – | – | – | –
COc1c(O)cc2oc3cc4c(c(O)c3c(=O)c2c1CC=C(C)C)CCC(C)(C)O4 | 64 µg/mL (≈ 156 µM) | 64 µg/mL (≈ 156 µM) | 32 µg/mL (≈ 78 µM) | > 256 µg/mL | 64 µg/mL (≈ 156 µM) | 64 µg/mL (≈ 156 µM) | > 256 µg/mL | – | – | – | –
COc1c(OC(C)=O)cc2oc3cc(OC(C)=O)c(CC=C(C)C)c(OC(C)=O)c3c(=O)c2c1CC=C(C)C | 128 µg/mL (≈ 239 µM) | 16 µg/mL (≈ 29.8 µM) | > 256 µg/mL | > 256 µg/mL | > 256 µg/mL | > 256 µg/mL | > 256 µg/mL | – | Non-Toxic | > 500 µg/mL | Non-Toxic
COc1c(O)cc2c(c1CC=C(C)C)Cc1c(cc(O)c(CC=C(C)C)c1O)O2 | 16 µg/mL (≈ 40.4 µM) | 8 µg/mL (≈ 20.2 µM) | 8 µg/mL (≈ 20.2 µM) | > 256 µg/mL | 4 µg/mL (≈ 10.1 µM) | 16 µg/mL (≈ 40.4 µM) | > 256 µg/mL | – | Non-Toxic | > 500 µg/mL | Non-Toxic
COc1c(O)cc2oc3cc(OC(C)=O)c(CC=C(C)C)c(O)c3c(=O)c2c1CC=C(C)C | > 256 µg/mL | > 256 µg/mL | > 256 µg/mL | > 256 µg/mL | > 256 µg/mL | > 256 µg/mL | > 256 µg/mL | – | – | – | –
